Four molecules from paper PMC7961048, “Hierarchized phosphotarget binding by the seven human 14-3-3 isoforms” (Nature Communications, 2021) can be followed below.

The target in assay [1] is T1, 14-3-3γ (Homo sapiens, UniProt P61981).
T1 construct: full-length human 14-3-3 constructs with an N-terminal MBP fusion were used; made in house; host or cells: E. coli BL21(DE3)
T1 sequence (P61981 1-247): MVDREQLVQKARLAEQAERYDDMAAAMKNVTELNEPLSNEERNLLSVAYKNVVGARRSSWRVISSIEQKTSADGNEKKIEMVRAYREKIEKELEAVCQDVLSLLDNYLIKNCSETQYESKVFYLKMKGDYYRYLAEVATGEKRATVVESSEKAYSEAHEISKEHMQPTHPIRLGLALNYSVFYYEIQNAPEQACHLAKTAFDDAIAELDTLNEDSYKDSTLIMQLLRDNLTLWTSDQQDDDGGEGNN
Put plainly: biochemical. Format: binding. The procedure:
FP was measured with a PHERAstar (BMG Labtech, Offenburg, Germany) microplate reader by using 485 ± 20 and 528 ± 20 nm band-pass filters (for excitation and emission, respectively). In direct FP measurements, a dilution series of the 14-3-3 protein was prepared in 96-well plates (96-well skirted PCR plate, 4ti-0740, 4titude, Wotton, UK) in a 20 mM HEPES pH 7.5 buffer containing 150 mM NaCl, 0.5 mM TCEP, 0.01% Tween 20, 50 nM fluorescently labeled fpB6 peptide, and 100 μM FSC, if indicated. The volume of the dilution series was 40 μl, which was later divided into three technical replicates of 10 μl upon transferring to 384-well micro-plates (low binding microplate, 384 well, E18063G5, Greiner Bio-One, Kremsmünster, Austria). In total, polarization of the probe was measured at eight different protein concentrations (whereas one contained no protein and corresponded to the free peptide). In competitive FP measurements, the same buffer was supplemented with the protein to achieve a complex formation of 60–80%, based on the direct titration. Then, this mixture was used for creating a dilution series of the unlabeled competitor (i.e., the studied peptides) and the measurement was carried out identically as in the direct experiment.
All FP experiments were done in triplicates. Analysis of FP experiments were carried out using ProFit, an in-house developed, Python-based fitting program. […]

The target in assay [2] is T2, 14-3-3η (Homo sapiens, UniProt Q04917).
T2 construct: cDNAs encoding other full-length 14-3-3 isoforms β, τ, η, and σ were obtained as codon-optimized; made in house; host or cells: E. coli BL21(DE3)
T2 sequence (Q04917 1-246): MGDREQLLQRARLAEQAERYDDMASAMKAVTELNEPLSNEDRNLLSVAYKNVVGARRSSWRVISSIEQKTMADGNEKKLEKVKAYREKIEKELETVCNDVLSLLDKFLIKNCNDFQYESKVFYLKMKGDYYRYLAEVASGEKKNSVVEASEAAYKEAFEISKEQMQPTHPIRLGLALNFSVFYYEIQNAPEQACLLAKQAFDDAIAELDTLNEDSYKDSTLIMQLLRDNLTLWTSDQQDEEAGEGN
The assay can be described thus: biochemical. Format: binding.

SMILES strings stand for the structures. Starred links: 1 amine or outer side, 2 acyl side, 3 side chain; linkers in the order of their positions; H or OH if unused. Non-standard residues stand in square brackets, D forms with d. Residues, ends and D or L forms follow the SMILES beside them. *: point of attachment. X1 = O=C(CCCC[C@@H]1SC[C@@H]2NC(=O)N[C@@H]21)NCCCOCCOCCOCCCN*; pT = C[C@@H](OP(=O)(O)O)[C@H](N)C(=O)O; Suc = O=C(CCC(=O)[*:2])[*:1]

With `CC(C)C[C@H](NC(=O)[C@H](C)NC(=O)[C@@H](NC(=O)[C@H](CCC(=O)O)NC(=O)[C@H](CCCNC(=N)N)NC(=O)[C@H](CCCNC(=N)N)NC(=O)[C@H](CCCNC(=N)N)NC(=O)[C@H](CO)NC(=O)[C@H](CCCNC(=N)N)NC(=O)[C@H](CO)NC(=O)CCC(=O)NCCCOCCOCCOCCCNC(=O)CCCC[C@@H]1SC[C@@H]2NC(=O)N[C@@H]21)[C@@H](C)OP(=O)(O)O)C(=O)O` [pHPV33E6] ({X1-Suc}-SRSRRRE[pT]AL-OH), the Kd (usually a measure of binding affinity in units of concentration) in assay [1] turned out to be 2.2 ± 0.3 µM; in assay [2], 1.98 µM.
On to `CC(C)[C@H](NC(=O)[C@H](C)NC(=O)[C@@H](NC(=O)[C@H](CCC(=O)O)NC(=O)[C@H](CCCNC(=N)N)NC(=O)[C@H](CCCNC(=N)N)NC(=O)[C@@H](NC(=O)[C@@H]1CCCN1C(=O)[C@H](CCCCN)NC(=O)[C@H](CO)NC(=O)CCC(=O)NCCCOCCOCCOCCCNC(=O)CCCC[C@@H]1SC[C@@H]2NC(=O)N[C@@H]21)[C@@H](C)O)[C@@H](C)OP(=O)(O)O)C(=O)O` [pHPV35E6E-1A] ({X1-Suc}-SKPTRRE[pT]AV-OH), for which, in assay [2], the Kd came to 12.4 µM.
Regarding `CC(C)[C@H](NC(=O)[C@H](CCC(=O)O)NC(=O)[C@@H](NC(=O)[C@H](CCC(=O)O)NC(=O)[C@H](CCCNC(=N)N)NC(=O)[C@H](CCCNC(=N)N)NC(=O)[C@H](CCCNC(=N)N)NC(=O)[C@@H]1CCCN1C(=O)[C@H](CCCCN)NC(=O)[C@H](CO)NC(=O)CCC(=O)NCCCOCCOCCOCCCNC(=O)CCCC[C@@H]1SC[C@@H]2NC(=O)N[C@@H]21)[C@@H](C)OP(=O)(O)O)C(=O)O` [pHPV35E6T-6R] ({X1-Suc}-SKPRRRE[pT]EV-OH), the affinity in assay [2], expressed as Kd, was 85 ± 20.6 µM.
`CC(C)[C@H](NC(=O)[C@H](CCC(=O)O)NC(=O)[C@@H](NC(=O)[C@H](CCC(=O)O)NC(=O)[C@H](CCCNC(=N)N)NC(=O)[C@H](CCCNC(=N)N)NC(=O)[C@@H](NC(=O)[C@@H]1CCCN1C(=O)[C@H](CCCCN)NC(=O)[C@H](CO)NC(=O)CCC(=O)NCCCOCCOCCOCCCNC(=O)CCCC[C@@H]1SC[C@@H]2NC(=O)N[C@@H]21)[C@@H](C)O)[C@@H](C)OP(=O)(O)O)C(=O)O` [pHPV35E6] ({X1-Suc}-SKPTRRE[pT]EV-OH) came in with a Kd in assay [2] of 163 ± 19 µM.
